# Columns and labels:
# Assay type in all cases: in vivo, human
# [1] = system: healthy men and women playing video games; assay: Stroop Color and Word Test during gaming; settings: 200 mg daily
# Method: The effectiveness of study-products (paraxanthine and placebo) was assessed by measuring in-game performance, cognition during gaming (Stroop Test) and mood status during gaming (Profile of Mood States (POMS)). The Stroop Color and Word Test (SCWT) was administered after 0, 3, and 6 six weeks of supplementation to assess cognitive performance during gaming throughout the study protocol. The Stroop Test was completed pre-dose, after 60 minutes of gaming and immediately after completing 120 minutes of video gaming during all study visits. The SCWT is a neuropsychological test that follows the procedures of Stroop (Stroop 1935). Briefly, the SCWT (with congruency) was administered for five continuous minutes via an online software application. One of four words (red, yellow, green, blue) appeared at random, until a selection was made, then a new word appeared at random. Subjects selected the response which matches the color of the ink of the randomly selected word (not the color that the word described). The number of correct answers served as the basis of a total Stroop score.
# [2] = system: healthy men and women playing video games; assay: Video game performance, Super Smash Brothers Ultimate; parameters: Damage Taken, Mean of visit / Damage Taken, Mean ± SD: unit not given here; settings: 200 mg daily; for Damage Taken, Mean ± SD / Falls (Deaths), Mean ± SD / Hit Percentage, Mean ± SD / Damage Taken, Mean of visit / Falls (Deaths), Mean of visit / Hit Percentage, Mean of visit: n = 5; for Damage Taken, Mean of visit / Falls (Deaths), Mean of visit / Hit Percentage, Mean of visit: mean of 20-120 min; for Damage Taken, Δ Baseline / Falls (Deaths), Δ Baseline: versus baseline; for Damage Taken, Δ PLA / Falls (Deaths), Δ PLA: versus placebo
# Method: The effectiveness of study-products (paraxanthine and placebo) was assessed by measuring in-game performance, cognition during gaming (Stroop Test) and mood status during gaming (Profile of Mood States (POMS)). All study participants played the game Super Smash Brothers Ultimate (Nintendo, Release date: Dec. 7, 2018). Each study participant arrived, completed all necessary testing and began playing the game. Game consoles and controllers were available, but if participants wanted to bring their own controller, they were allowed to do so. The game was be set to the same level and strategy for each player. During each session, study participants played the game for 60 minutes and took a break to complete the Stroop Test and POMS. Participants then played the game for an additional 60 minutes before completing their third tests. […]
# [3] = system: healthy subject; assay: Video game Tetris, game performance measured by play time; settings: 100 mg prior to playing Tetris; one subject
# Text: Each of the three games were separated by a one-week washout period. In Tetris, the player brings down blocks from the top of the screen. The player can move the blocks around, either left to right and/or you can rotate them. The blocks fall at a certain rate, but the player can make them fall faster if he/she is sure of the positioning. The game Tetris becomes more challenging the longer you play. It becomes faster the better the player performs. The player has to make the same decisions but under a higher level of pressure. Each time the player clears a line in Tetris, the player is awarded more points. Each time the pieces reach the top of the screen, the game is over. Game performance was measured by play time. The player was not allowed to press a button to increase the speed of the current piece's descent or cause the piece to drop and lock into place immediately, known as a “soft drop” and a “hard drop”, respectively.
# [4] = gaming between 100 and 120 minutes of play
structure (smiles),measurement,setting,value
"Cn1c(=O)[nH]c2ncn(C)c2c1=O [Paraxanthine, paraxanthine]",increase in cognitive performance (Stroop test score) compared to baseline,"[1]; 3 weeks, after one hour of gaming",39%
same,increase in cognitive performance (Stroop test score) compared to baseline,"[1]; 3 weeks, after two hours of gaming",89%
same,increase in cognitive performance (Stroop test score) compared to baseline,"[1]; 3 weeks, pre-gaming",25%
same,increase in cognitive performance (Stroop test score) compared to baseline,"[1]; 6 weeks, after one hour of gaming",89%
same,increase in cognitive performance (Stroop test score) compared to baseline,"[1]; 6 weeks, after two hours of gaming",119%
same,increase in cognitive performance (Stroop test score) compared to baseline,"[1]; 6 weeks, pre-gaming",25%
same,habituation,[1]; even after 6 weeks,No habituation was observed
same,"Damage Taken, Mean ± SD","[2]; 3 weeks, 20 min",870.00 ± 301.09
same,"Falls (Deaths), Mean ± SD","[2]; 3 weeks, 20 min",5.75 ± 2.63
same,"Hit Percentage, Mean ± SD","[2]; 3 weeks, 20 min",37.75 ± 9.64
same,"Damage Taken, Mean ± SD","[2]; 3 weeks, 40 min",1103.00 ± 253.95
same,"Falls (Deaths), Mean ± SD","[2]; 3 weeks, 40 min",8 ± 3.67
same,"Hit Percentage, Mean ± SD","[2]; 3 weeks, 40 min",35.8 ± 8.93
same,"Damage Taken, Mean ± SD","[2]; 3 weeks, 60 min",987.25 ± 396.60
same,"Falls (Deaths), Mean ± SD","[2]; 3 weeks, 60 min",7 ± 3.83
same,"Hit Percentage, Mean ± SD","[2]; 3 weeks, 60 min",38 ± 5.72
same,"Damage Taken, Mean ± SD","[2]; 3 weeks, 80 min",1351.80 ± 341.08
same,"Falls (Deaths), Mean ± SD","[2]; 3 weeks, 80 min",9 ± 3.32
same,"Hit Percentage, Mean ± SD","[2]; 3 weeks, 80 min",35.2 ± 8.17
same,"Damage Taken, Mean ± SD","[2]; 3 weeks, 100 min",1619.60 ± 383.27
same,"Falls (Deaths), Mean ± SD","[2]; 3 weeks, 100 min",11.4 ± 4.04
same,"Hit Percentage, Mean ± SD","[2]; 3 weeks, 100 min",29.4 ± 8.08
same,"Damage Taken, Mean ± SD","[2]; 3 weeks, 120 min",2006.60 ± 376.34
same,"Falls (Deaths), Mean ± SD","[2]; 3 weeks, 120 min",13 ± 3.74
same,"Hit Percentage, Mean ± SD","[2]; 3 weeks, 120 min",26.4 ± 3.51
same,"Damage Taken, Mean of visit",[2]; 3 weeks,"1,323.0"
same,"Falls (Deaths), Mean of visit",[2]; 3 weeks,9.0
same,"Hit Percentage, Mean of visit",[2]; 3 weeks,33.8
same,"Damage Taken, Mean ± SD","[2]; 6 weeks, 20 min",723.62 ± 457.07
same,"Falls (Deaths), Mean ± SD","[2]; 6 weeks, 20 min",5.2 ± 1.92
same,"Hit Percentage, Mean ± SD","[2]; 6 weeks, 20 min",28.09 ± 16.43
same,"Damage Taken, Mean ± SD","[2]; 6 weeks, 40 min",1077.40 ± 258.42
same,"Falls (Deaths), Mean ± SD","[2]; 6 weeks, 40 min",8 ± 2.74
same,"Hit Percentage, Mean ± SD","[2]; 6 weeks, 40 min",42.2 ± 12.46
same,"Damage Taken, Mean ± SD","[2]; 6 weeks, 60 min",1182.80 ± 317.56
same,"Falls (Deaths), Mean ± SD","[2]; 6 weeks, 60 min",7.4 ± 2.7
same,"Hit Percentage, Mean ± SD","[2]; 6 weeks, 60 min",39.4 ± 6.88
same,"Damage Taken, Mean ± SD","[2]; 6 weeks, 80 min",1425.80 ± 173.33
same,"Falls (Deaths), Mean ± SD","[2]; 6 weeks, 80 min",10 ± 2.55
same,"Hit Percentage, Mean ± SD","[2]; 6 weeks, 80 min",33 ± 5.43
same,"Damage Taken, Mean ± SD","[2]; 6 weeks, 100 min",1697.60 ± 336.71
same,"Falls (Deaths), Mean ± SD","[2]; 6 weeks, 100 min",13.2 ± 2.59
same,"Hit Percentage, Mean ± SD","[2]; 6 weeks, 100 min",30.4 ± 4.98
same,"Damage Taken, Mean ± SD","[2]; 6 weeks, 120 min",1921.80 ± 379.30
same,"Falls (Deaths), Mean ± SD","[2]; 6 weeks, 120 min",14.2 ± 3.56
same,"Hit Percentage, Mean ± SD","[2]; 6 weeks, 120 min",27.2 ± 4.15
same,"Damage Taken, Mean of visit",[2]; 6 weeks,"1,338.2"
same,"Falls (Deaths), Mean of visit",[2]; 6 weeks,9.7
same,"Hit Percentage, Mean of visit",[2]; 6 weeks,33.4
same,"Damage Taken, Mean ± SD","[2]; Baseline visit, 20 min",981.20 ± 457.06
same,"Falls (Deaths), Mean ± SD","[2]; Baseline visit, 20 min",7 ± 3.54
same,"Hit Percentage, Mean ± SD","[2]; Baseline visit, 20 min",36.6 ± 11.13
same,"Damage Taken, Mean ± SD","[2]; Baseline visit, 40 min",1306.75 ± 553.65
same,"Falls (Deaths), Mean ± SD","[2]; Baseline visit, 40 min",10.5 ± 5.26
same,"Hit Percentage, Mean ± SD","[2]; Baseline visit, 40 min",30.25 ± 11.15
same,"Damage Taken, Mean ± SD","[2]; Baseline visit, 60 min",1207.60 ± 425.74
same,"Falls (Deaths), Mean ± SD","[2]; Baseline visit, 60 min",8 ± 3.39
same,"Hit Percentage, Mean ± SD","[2]; Baseline visit, 60 min",34.6 ± 9.92
same,"Damage Taken, Mean ± SD","[2]; Baseline visit, 80 min",1527.80 ± 541.49
same,"Falls (Deaths), Mean ± SD","[2]; Baseline visit, 80 min",10.8 ± 4.97
same,"Hit Percentage, Mean ± SD","[2]; Baseline visit, 80 min",34.2 ± 8.23
same,"Damage Taken, Mean ± SD","[2]; Baseline visit, 100 min",1647.20 ± 359.67
same,"Falls (Deaths), Mean ± SD","[2]; Baseline visit, 100 min",11 ± 3.08
same,"Hit Percentage, Mean ± SD","[2]; Baseline visit, 100 min",30.6 ± 5.98
same,"Damage Taken, Mean ± SD","[2]; Baseline visit, 120 min",2067.80 ± 803.18
same,"Falls (Deaths), Mean ± SD","[2]; Baseline visit, 120 min",16.6 ± 8.59
same,"Hit Percentage, Mean ± SD","[2]; Baseline visit, 120 min",24.4 ± 4.28
same,"Damage Taken, Mean of visit",[2]; Baseline visit,"1,460.9"
same,"Falls (Deaths), Mean of visit",[2]; Baseline visit,10.65
same,"Hit Percentage, Mean of visit",[2]; Baseline visit,31.7
same,"Damage Taken, Δ Baseline",[2]; 3 weeks,−9.4%
same,"Falls (Deaths), Δ Baseline",[2]; 3 weeks,−15.5%
same,"Damage Taken, Δ PLA",[2]; 3 weeks,−9.5%
same,"Falls (Deaths), Δ PLA",[2]; 3 weeks,−21.7%
same,"Damage Taken, Δ Baseline",[2]; 6 weeks,−8.4%
same,"Falls (Deaths), Δ Baseline",[2]; 6 weeks,−8.9%
same,"Damage Taken, Δ PLA",[2]; 6 weeks,−14.0%
same,"Falls (Deaths), Δ PLA",[2]; 6 weeks,−15.6%
same,reduction of own damage taken compared to baseline (prior to supplementation),[2]; after 3 weeks,9.4%
same,reduction of own damage taken compared to placebo,[2]; after 3 weeks,9.5%
same,reduction of own deaths compared to baseline (prior to supplementation),[2]; after 3 weeks,15.5%
same,reduction of own deaths compared to placebo,[2]; after 3 weeks,21.7%
same,"improvement over placebo, damage taken, later stages of gaming",[2]; [4],30.9%
same,"improvement over placebo, number of deaths, later stages of gaming",[2]; [4],34%
same,"gaming performance (play time), effect in words",[3],"increased gaming performance compared to placebo, and compared to caffeine intake"

# From patent US20220331327A1, “THE USE OF PARAXANTHINE TO IMPROVE PERFORMANCE IN VIDEO GAMERS” (priority 2021, published 2022)
